{"source": "patent US12453725B2", "about": "“Treatment of inflammatory disease” (Celleron Therapeutics Limited, priority 2019, dated 2025)", "key": {"SW620 cells": {"test_system": "SW620 cells", "assay": "RNA-seq, SW620 cells", "assay_type": "cell-based, human", "protocol": "SW620 cells were seeded into 6-well plates and left to adhere overnight. Cells were treated with 1 μM, 10 μM of CXD101 for 48 h. CT26 cells were seeded onto 100 mm plates and treated with 2.7 μM and 10 μM CXD101 for 72 h. After treatment cells were harvested and total RNA extracted by means of Promega ReliaPrep™ RNA Cell Miniprep System (Promega, USA). RNA was dissolved in RNAse free water and stored in −80° C. for future analysis. RNA concentration was measured by NanoDrop 2000 (Thermo Fisher Scientific, USA). Samples were qualified for library preparation if […]. Library preparation with poly (A) enrichment was performed by BGI.\nFASTQ files for CXD101 and DMSO treated samples in three biological replicates were trimmed to remove adapters and low-quality bases with TrimGalore v.0.4.3 (http://www.bioinformatics.babraham.ac.uk/projects/trim_galore/). The trimmed reads were aligned to the human reference genome (build hg19) with STAR aligner v.2.7 with two mismatches allowed. Differential gene expression analysis was done with the Bioconductor framework (v.3.8) and DESeq2 R package v.1.22, using read count data provided by the aligner. Genes were considered differentially expressed if the adjusted P, calculated using the Benjamini-Hochberg method in order to minimise the false discovery rate, was less than 0.01 (1%) and the change in expression level was greater than ˜2-fold as compared to DMSO control (e.g. |log_2(expression fold change)|>1)."}, "[1]": {"conditions": "cited from earlier work"}, "[2]": {"test_system": "SW620 human colon adenocarcinoma cells", "assay": "MTT assay, SW620 cells", "assay_type": "cell-based", "protocol": "Three human colorectal adenocarcinoma cell lines: SW620 (ATCC® CCL-227™), HCT-15 (ATCC® CCL-225™), LoVo (ATCC® CCL-229™), and one mouse colon carcinoma cell line: CT26 (ATCC® CRL-2638™) were obtained from ATCC. Human cell lines were cultured in DMEM (Lonza Group, Switzerland), while CT26 in RPMI (Biowest, France). The media were supplemented with 10% FBS and 1% penicillin-streptomycin (Lonza Group, Switzerland). Cells were cultured under standard conditions.\nIn order to assess the cytotoxicity of CXD101, cells were seeded onto 96-well plates overnight and the next day were dosed with CXD101 and incubated for 72 h or 120 h. Next, 100 μl of Thiazolyl Blue Tetrazolium Bromide (MTT, Sigma-Aldrich, USA) was added into a well (final concentration […]) and incubated for 2 h at 37° C. After that medium was discarded and formazan crystals were dissolved in 100 μl DMSO (VWR International, USA) by shaking for 15 minutes. Absorbance was read by Omega FLUOstar plate reader (BMG Labtech Ltd, Germany) at the 584 nm wavelength. Data were analysed and IC50 doses calculated in GraphPad Prism (GraphPad Software, USA)."}, "colon26 cells": {"test_system": "colon26 cells", "assay": "qPCR of single genes, colon26 cells", "assay_type": "cell-based, mouse", "protocol": "Total RNA purified from DMSO- or CXD101 treated cells was transcribed into cDNA according to the manufacturer's instructions (iScript cDNA Synthesis Kit, Bio-Rad, USA). qPCR was conducted according to the manufacturer's protocol (SsoAdvanced Universal SYBR Green Supermix, Bio-Rad Laboratories, USA) on CFX Connect Real-Time System thermocycler (Bio-Rad Laboratories, USA)."}, "colon26 tumours": {"test_system": "colon26 tumours", "assay": "Syngeneic colon26 colon carcinoma model", "assay_type": "in vivo", "protocol": "To assess gene expression in tumours that were growing in vivo, we evaluated the effect of CXD101 in the syngeneic colon26 colon carcinoma model in tumours grown subcutaneously in Balb/c mice, with CXD101 given orally for two 5-day consecutive periods and performed RNAseq on RNA purified from the tumours. Formalin-fixed paraffin-embedded samples were also prepared to assess by immunohistochemistry (IHC) the tumour micro-environment.\n(§1) Syngeneic colorectal tumour xenograft Colon 26 model was induced in female BALB/c mice and MC38 model in C57BL/6 mice by subcutaneous injection of cell suspension into the flank following the anaesthetization by inhalation of isoflurane. Upon solid tumour formation Colon 26 animals were divided into six experimental groups treated respectively with: vehicle control (control), CXD101, anti-PD-1 mAb (BioXCell, USA), anti-CTLA4 mAb (BioXCell, USA), combination of CXD101 with anti-PD-1 antibody and combination of CXD101 with anti-CTLA4 antibody. MC38 animals were divided into four groups, without CTLA-4-based treatment. During the course of experiment animals were monitored twice daily and weighed three times a week. Mice in bad overall condition and/or tumour volume exceeding 1000 mm3 were euthanized. Tumour volume was calculated by two-dimensional measurement according to the formula: Tumour volume=(a×b^2)×0.5 in which a—represents the largest and, b—the perpendicular tumour diameter. The study was terminated on 36th day (Colon 26) or 48th day (MC38). All Colon 26 animal handling has been executed by Charles River Laboratories (Germany) personnel with compliance to all local and international laws and regulations. Experiments involving MC38 tumour model have been executed by Crown Bioscience San Diego (USA). CXD101 Clinical Trial in Combination with Nivolumab (CTL-101-023)"}, "H3 acetylation": {"test_system": "H3 acetylation", "assay": "H3 acetylation, colon26 cells", "assay_type": "cell-based, mouse", "conditions": "colon26, dose-dependent", "protocol": "(§2) Cell pellets were lysed in TNN buffer, for 30 minutes on ice and centrifuged for another 30 minutes at maximum speed at 4° C. Protein concentration was assessed by Bradford assay (Quick Start™ Bradford 1× Dye Reagent, Bio-Rad Laboratories, USA). After gel electrophoresis, proteins were transferred onto the PVDF membrane by means of Trans-Blot® Turbo™ Transfer System (Bio-Rad Laboratories, USA) and blocked by 1 h incubation in 5% skim milk (Merck Group, Germany) in PBST at RT. To confirm acetylation induced by CXD101, membranes were incubated with anti-H3 (ab1791, abcam) antibody, anti-H3Ack9 (ab10812, abcam) in case of CT26 cells, and for SW620 with H3Ack14 antibody (#7627, Cell Signaling) overnight, at 4° C. Next, membranes were washed and treated with secondary antibody for 1 h at RT. Chemiluminescent signals were detected by LICOR C-Digit (LI-COR Biosciences, USA), and the data quantified using ImageJ software (National Institutes of Health, USA)."}, "MC38 tumours": {"test_system": "MC38 tumours", "assay": "Syngeneic MC38 tumour model", "design": "species or system C57BL/6 mice", "conditions": "mouse, in vivo", "excerpt": "as §1"}, "histone H3 acetylation": {"test_system": "histone H3 acetylation", "assay": "Histone H3 acetylation, SW620 cells (western blot)", "assay_type": "cell-based, human", "conditions": "SW620, 72 hours", "protocol": "as §2"}, "physchem": {"assay": "physchem", "conditions": "25 °C, aqueous buffer"}}}
{"smiles": "Cc1nn(C)cc1CN1CCC(c2ccc(C(=O)Nc3ccccc3N)cc2)CC1", "note": "[CXD101, N-(2-aminophenyl)-4-(1-[(1,3-dimethyl-1H-pyrazol-4-yl)methyl]piperidin-4-yl)benzamide]", "values": [{"measurement": "share of DEGs down-regulated", "setting": "SW620 cells; SW620", "value": 30, "unit": "%"}, {"measurement": "share of DEGs up-regulated", "setting": "SW620 cells; SW620", "value": 70, "unit": "%"}, {"measurement": "number of differentially expressed transcripts", "setting": "SW620 cells; log 2 FC >1 and FDR <1%", "value": "about 2500"}, {"measurement": "patients with tumour reduction", "setting": "[1]; T-cell lymphoma, follicular lymphoma, Hodgkin lymphoma", "value": 63, "unit": "%"}, {"measurement": "MTD", "setting": "[1]; for 5 days in a 3-weekly cycle", "value": 20, "unit": "mg B.D."}, {"measurement": "proliferation of human colon cancer cells", "setting": "[2]", "value": "blocks proliferation"}, {"measurement": "expression of Ctla4, H2-D1, Tnfsrf8", "setting": "colon26 cells", "value": "no effects"}, {"measurement": "expression of H2-DMb1, H2-Eb1, H2-Dma, Ereg, Timp3, Ccl9, Cc20, II33, Rab3b", "setting": "colon26 cells", "value": "increased expression"}, {"measurement": "expression of H2-T3", "setting": "colon26 cells", "value": "decreased"}, {"measurement": "growth of colon26 tumours", "setting": "colon26 tumours; mono-therapy vs combined treatment study", "value": "inhibitory effect"}, {"measurement": "body weight", "setting": "colon26 tumours; mono-therapy, 15 and 50 mg/kg", "value": "minimal effect"}, {"measurement": "tumour growth", "setting": "colon26 tumours; mono-therapy, oral, two 5-day periods, 15 and 50 mg/kg, dose-dependent", "value": "significant inhibition of tumour growth"}, {"measurement": "H3 acetylation in cells", "setting": "H3 acetylation", "value": "increases the H3 acetylation"}, {"measurement": "MC38 tumour response", "setting": "MC38 tumours", "value": "marginal response"}, {"measurement": "acetylation on histone H3 lysine", "setting": "histone H3 acetylation", "value": "increased level of acetylation"}, {"measurement": "solubility", "setting": "physchem", "value": "≥ 500", "unit": "µg/mL"}]}
